From ChEMBL document CHEMBL3632549, “Targeting EGFR/HER2 tyrosine kinases with a new potent series of 6-substituted 4-anilinoquinazoline hybrids: Design, synthesis, kinase assay, cell-based assay, and molecular docking” (Bioorg Med Chem Lett, 2015)

Key:
[1] = molecular target: Epidermal growth factor receptor (Homo sapiens, UniProt P00533); experiment: Inhibition of EGFR (unknown origin) after 120 mins by HotSpot assay
[2] = molecular target: Receptor tyrosine-protein kinase erbB-2 (Homo sapiens, UniProt P04626); experiment: Inhibition of HER2 (unknown origin) after 120 mins by HotSpot assay
Chain of Receptor tyrosine-protein kinase erbB-2 (P04626 whole entry): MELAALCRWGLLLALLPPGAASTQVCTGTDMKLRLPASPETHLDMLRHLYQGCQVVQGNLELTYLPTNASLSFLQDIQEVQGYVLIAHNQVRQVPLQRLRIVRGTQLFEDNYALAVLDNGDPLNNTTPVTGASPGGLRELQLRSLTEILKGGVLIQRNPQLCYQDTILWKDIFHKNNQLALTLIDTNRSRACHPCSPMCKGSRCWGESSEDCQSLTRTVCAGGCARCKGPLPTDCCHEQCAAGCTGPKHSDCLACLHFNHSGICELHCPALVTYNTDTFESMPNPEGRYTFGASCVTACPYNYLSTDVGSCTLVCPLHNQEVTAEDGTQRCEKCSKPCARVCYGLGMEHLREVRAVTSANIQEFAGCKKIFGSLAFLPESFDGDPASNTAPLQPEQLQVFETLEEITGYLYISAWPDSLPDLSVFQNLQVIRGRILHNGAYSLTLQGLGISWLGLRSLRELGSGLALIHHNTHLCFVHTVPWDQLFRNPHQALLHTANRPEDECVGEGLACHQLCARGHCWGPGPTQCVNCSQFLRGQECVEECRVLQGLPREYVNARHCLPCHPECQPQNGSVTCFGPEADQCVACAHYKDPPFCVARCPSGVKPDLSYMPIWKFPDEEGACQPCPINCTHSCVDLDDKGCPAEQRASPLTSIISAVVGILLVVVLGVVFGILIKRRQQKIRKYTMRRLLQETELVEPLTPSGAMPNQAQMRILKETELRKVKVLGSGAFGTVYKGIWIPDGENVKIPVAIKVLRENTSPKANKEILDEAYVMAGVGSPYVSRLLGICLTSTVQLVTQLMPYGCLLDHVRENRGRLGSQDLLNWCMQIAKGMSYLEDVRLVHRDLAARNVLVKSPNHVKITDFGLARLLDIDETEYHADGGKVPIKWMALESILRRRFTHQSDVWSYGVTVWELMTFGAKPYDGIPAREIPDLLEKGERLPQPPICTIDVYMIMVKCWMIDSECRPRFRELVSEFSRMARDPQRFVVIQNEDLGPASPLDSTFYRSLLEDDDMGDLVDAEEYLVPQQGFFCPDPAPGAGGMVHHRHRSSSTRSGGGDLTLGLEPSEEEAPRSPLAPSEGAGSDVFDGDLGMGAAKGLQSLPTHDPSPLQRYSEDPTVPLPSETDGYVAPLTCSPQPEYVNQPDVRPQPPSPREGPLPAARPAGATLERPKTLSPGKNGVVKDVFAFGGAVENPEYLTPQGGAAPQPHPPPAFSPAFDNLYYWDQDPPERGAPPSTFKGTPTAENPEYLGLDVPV

BT-474 = experiment: Cytotoxicity against human BT474 cells expressing HER2 after 72 hrs by Cell Titer Glo assay; type: functional; settings: BT-474, 72 h
Focal adhesion kinase 1 = Focal adhesion kinase 1 (Homo sapiens, UniProt Q05397); experiment: Inhibition of FAK (unknown origin) after 120 mins by HotSpot assay
Chain of Focal adhesion kinase 1 (Q05397 whole entry): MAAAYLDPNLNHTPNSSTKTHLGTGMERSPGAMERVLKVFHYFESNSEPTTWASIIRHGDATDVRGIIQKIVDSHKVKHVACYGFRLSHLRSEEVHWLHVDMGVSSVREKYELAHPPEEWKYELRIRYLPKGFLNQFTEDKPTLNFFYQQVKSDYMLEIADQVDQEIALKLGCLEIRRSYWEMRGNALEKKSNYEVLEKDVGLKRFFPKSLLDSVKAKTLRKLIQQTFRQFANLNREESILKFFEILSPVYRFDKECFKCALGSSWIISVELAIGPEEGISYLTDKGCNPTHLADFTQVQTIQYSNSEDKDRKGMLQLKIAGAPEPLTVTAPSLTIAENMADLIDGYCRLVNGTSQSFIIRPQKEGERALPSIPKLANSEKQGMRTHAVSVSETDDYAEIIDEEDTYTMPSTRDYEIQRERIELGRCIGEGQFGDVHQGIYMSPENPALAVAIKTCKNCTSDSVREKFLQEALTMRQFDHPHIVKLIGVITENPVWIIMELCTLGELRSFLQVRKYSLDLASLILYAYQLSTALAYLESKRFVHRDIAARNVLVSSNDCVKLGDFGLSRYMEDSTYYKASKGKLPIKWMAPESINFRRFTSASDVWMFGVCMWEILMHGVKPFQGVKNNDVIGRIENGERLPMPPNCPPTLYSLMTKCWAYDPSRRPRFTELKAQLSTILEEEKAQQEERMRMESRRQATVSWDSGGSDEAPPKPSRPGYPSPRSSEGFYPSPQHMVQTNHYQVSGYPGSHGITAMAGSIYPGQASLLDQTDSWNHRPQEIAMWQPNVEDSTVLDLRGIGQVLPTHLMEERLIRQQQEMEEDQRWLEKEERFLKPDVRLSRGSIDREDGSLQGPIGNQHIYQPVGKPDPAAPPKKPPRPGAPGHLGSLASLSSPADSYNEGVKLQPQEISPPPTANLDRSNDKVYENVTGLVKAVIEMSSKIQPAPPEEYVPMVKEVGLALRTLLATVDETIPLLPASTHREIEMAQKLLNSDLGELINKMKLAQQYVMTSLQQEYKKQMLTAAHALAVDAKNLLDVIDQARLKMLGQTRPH

[3] = Cytotoxicity against human L-132 cells after 48 hrs by MTT assay; type: cell-based; settings: L132, 48 h
[4] = molecular target: Fibroblast growth factor receptor 1 (Homo sapiens, UniProt P11362); experiment: Inhibition of FGFR1 (unknown origin) after 120 mins by HotSpot assay
[5] = molecular target: Tyrosine-protein kinase Lck (Homo sapiens, UniProt P06239); experiment: Inhibition of LCK (unknown origin) after 120 mins by HotSpot assay
[6] = molecular target: Insulin-like growth factor 1 receptor (Homo sapiens, UniProt P08069); experiment: Inhibition of IGF1R (unknown origin) after 120 mins by HotSpot assay
Chain of Insulin-like growth factor 1 receptor (P08069 31-736 limits assumed): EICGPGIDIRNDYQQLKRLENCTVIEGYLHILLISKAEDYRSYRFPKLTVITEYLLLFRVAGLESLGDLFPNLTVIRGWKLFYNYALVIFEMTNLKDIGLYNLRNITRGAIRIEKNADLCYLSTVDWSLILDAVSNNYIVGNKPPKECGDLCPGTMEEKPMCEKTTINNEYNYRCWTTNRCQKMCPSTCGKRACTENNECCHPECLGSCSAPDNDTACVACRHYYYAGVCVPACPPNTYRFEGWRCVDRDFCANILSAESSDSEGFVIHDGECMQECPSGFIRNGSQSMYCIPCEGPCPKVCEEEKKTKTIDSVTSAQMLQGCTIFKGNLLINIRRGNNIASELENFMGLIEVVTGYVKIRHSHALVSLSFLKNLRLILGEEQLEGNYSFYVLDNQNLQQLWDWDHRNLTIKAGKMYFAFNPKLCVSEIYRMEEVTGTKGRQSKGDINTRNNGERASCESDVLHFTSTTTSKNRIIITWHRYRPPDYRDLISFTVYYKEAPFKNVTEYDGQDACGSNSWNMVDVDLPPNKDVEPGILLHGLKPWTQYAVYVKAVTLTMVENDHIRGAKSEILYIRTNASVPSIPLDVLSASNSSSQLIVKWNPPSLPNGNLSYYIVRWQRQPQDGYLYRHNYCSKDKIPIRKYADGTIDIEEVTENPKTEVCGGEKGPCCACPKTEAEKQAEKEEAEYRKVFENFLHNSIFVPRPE
Chain of Insulin-like growth factor 1 receptor (P08069 741-1367 limits assumed): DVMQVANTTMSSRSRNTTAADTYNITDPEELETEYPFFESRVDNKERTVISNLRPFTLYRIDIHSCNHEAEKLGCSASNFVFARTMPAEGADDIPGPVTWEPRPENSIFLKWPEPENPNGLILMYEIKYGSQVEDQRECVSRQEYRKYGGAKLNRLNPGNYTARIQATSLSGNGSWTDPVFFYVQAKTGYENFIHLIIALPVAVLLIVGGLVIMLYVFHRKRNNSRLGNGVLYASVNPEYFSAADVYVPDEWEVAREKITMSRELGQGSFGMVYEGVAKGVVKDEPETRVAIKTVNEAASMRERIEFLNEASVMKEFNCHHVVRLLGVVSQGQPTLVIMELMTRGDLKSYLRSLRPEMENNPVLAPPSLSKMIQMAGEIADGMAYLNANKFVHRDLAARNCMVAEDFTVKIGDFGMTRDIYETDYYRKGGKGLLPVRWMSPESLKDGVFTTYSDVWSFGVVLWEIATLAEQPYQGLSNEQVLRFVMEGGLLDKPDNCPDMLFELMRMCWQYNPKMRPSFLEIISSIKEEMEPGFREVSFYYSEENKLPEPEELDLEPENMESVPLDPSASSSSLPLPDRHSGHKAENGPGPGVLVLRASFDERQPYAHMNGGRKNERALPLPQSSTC

[7] = molecular target: Vascular endothelial growth factor receptor 2 (Homo sapiens, UniProt P35968); experiment: Inhibition of VEGFR2 (unknown origin) after 120 mins by HotSpot assay
[8] = molecular target: Hepatocyte growth factor receptor (Homo sapiens, UniProt P08581); experiment: Inhibition of c-MET (unknown origin) after 120 mins by HotSpot assay
[9] = molecular target: Mitogen-activated protein kinase 14 (Homo sapiens, UniProt Q16539); experiment: Inhibition of P38a (unknown origin) after 120 mins by HotSpot assay
[10] = molecular target: Cyclin-dependent kinase 2 (Homo sapiens, UniProt P24941); experiment: Inhibition of CDK2 (unknown origin) after 120 mins by HotSpot assay
[11] = molecular target: MAP kinase-activated protein kinase 2 (Homo sapiens, UniProt P49137); experiment: Inhibition of MAPKAPK2 (unknown origin) after 120 mins by HotSpot assay

Chain of Epidermal growth factor receptor (P00533 whole entry): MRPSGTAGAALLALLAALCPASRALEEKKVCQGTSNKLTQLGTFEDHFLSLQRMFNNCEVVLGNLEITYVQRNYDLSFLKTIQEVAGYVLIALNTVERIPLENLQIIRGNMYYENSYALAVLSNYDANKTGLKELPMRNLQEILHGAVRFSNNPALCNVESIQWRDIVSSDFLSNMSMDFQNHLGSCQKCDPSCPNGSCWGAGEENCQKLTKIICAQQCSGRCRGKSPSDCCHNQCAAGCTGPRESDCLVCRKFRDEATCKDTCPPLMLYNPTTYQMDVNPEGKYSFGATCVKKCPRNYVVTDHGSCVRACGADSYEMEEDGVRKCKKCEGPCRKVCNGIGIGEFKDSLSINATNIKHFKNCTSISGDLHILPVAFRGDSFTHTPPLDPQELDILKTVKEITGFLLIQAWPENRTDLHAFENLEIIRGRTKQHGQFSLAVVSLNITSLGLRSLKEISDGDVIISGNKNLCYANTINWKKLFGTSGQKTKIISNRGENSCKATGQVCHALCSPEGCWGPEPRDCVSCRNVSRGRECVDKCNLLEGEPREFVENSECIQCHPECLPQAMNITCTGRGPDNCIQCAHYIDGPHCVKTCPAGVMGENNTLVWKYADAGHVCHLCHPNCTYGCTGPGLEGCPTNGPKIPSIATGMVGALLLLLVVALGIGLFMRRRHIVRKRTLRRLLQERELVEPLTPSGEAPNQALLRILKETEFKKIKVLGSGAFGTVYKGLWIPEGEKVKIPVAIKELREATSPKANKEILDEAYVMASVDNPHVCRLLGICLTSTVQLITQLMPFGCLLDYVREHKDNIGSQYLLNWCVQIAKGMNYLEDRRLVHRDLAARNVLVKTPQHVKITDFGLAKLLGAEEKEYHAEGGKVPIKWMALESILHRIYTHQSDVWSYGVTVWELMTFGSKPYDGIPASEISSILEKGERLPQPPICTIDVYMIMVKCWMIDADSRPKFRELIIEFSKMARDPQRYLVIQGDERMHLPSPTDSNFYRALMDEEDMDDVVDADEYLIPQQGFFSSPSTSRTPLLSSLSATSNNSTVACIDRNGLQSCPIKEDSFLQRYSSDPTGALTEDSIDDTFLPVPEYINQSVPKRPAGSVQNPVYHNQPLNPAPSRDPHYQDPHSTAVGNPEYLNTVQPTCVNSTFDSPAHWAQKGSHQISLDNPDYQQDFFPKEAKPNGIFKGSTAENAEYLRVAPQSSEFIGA

## CCOC(=O)C(=CNc1ccc2ncnc(Nc3ccc(OCc4ccccn4)c(Cl)c3)c2c1)C(=O)OCC
[1]
  IC50: 1020 nM
[2]
  IC50: 3290 nM

## NC(=O)Nc1ccc2ncnc(Nc3ccc(Oc4cccc(C(F)(F)F)c4)c(Cl)c3)c2c1
[1]
  IC50: 4 nM
[2]
  IC50: 77 nM
BT-474
  GI50: > 10000 nM

## NC(=O)Nc1ccc2ncnc(Nc3ccc(Oc4ccc(Cl)c(Cl)c4)c(Cl)c3)c2c1
[1]
  IC50: 543 nM
[2]
  IC50: 706 nM
BT-474
  GI50: 2380 nM

## NC(=O)Nc1ccc2ncnc(Nc3ccc(OCc4cccc(F)c4)c(Cl)c3)c2c1
[1]
  IC50: 99 nM
[2]
  IC50: 287 nM
BT-474
  GI50: 4720 nM

## CC(=O)Nc1ccc2ncnc(Nc3ccc(OCc4ccccn4)c(Cl)c3)c2c1
[1]
  IC50: 3 nM
Focal adhesion kinase 1
  IC50: Not Active
[3]
  IC50: > 100000 nM
[4]
  IC50: Not Active
[5]
  IC50: 1220 nM
[6]
  IC50: Not Active
[7]
  IC50: Not Active
[8]
  IC50: Not Active
[9]
  IC50: Not Active
[2]
  IC50: 16 nM
[10]
  IC50: Not Active
BT-474
  GI50: 2700 nM
[11]
  IC50: Not Active

## CCNC(=O)Nc1ccc2ncnc(Nc3ccc(Oc4cccc(C(F)(F)F)c4)c(Cl)c3)c2c1
[1]
  IC50: 29 nM
[2]
  IC50: 625 nM
BT-474
  GI50: 3550 nM

## CCNC(=O)Nc1ccc2ncnc(Nc3ccc(Oc4ccc(Cl)c(Cl)c4)c(Cl)c3)c2c1
[1]
  IC50: > 10000 nM
[2]
  IC50: > 10000 nM
BT-474
  GI50: > 10000 nM

## CCNC(=O)Nc1ccc2ncnc(Nc3ccc(OCc4cccc(F)c4)c(Cl)c3)c2c1
[1]
  IC50: 35 nM
[3]
  IC50: > 100000 nM
[2]
  IC50: 126 nM
BT-474
  GI50: 1820 nM

## CCNC(=O)Nc1ccc2ncnc(Nc3ccc(OCc4ccccn4)c(Cl)c3)c2c1
[1]
  IC50: 227 nM
[3]
  IC50: > 100000 nM
[2]
  IC50: 1390 nM
BT-474
  GI50: 1950 nM

## CCOC(=O)C(=CNc1ccc2ncnc(Nc3ccc(Oc4cccc(C(F)(F)F)c4)c(Cl)c3)c2c1)C(=O)OCC
[1]
  IC50: 23 nM
[2]
  IC50: 1000 nM

## CCOC(=O)C(=CNc1ccc2ncnc(Nc3ccc(Oc4ccc(Cl)c(Cl)c4)c(Cl)c3)c2c1)C(=O)OCC
[1]
  IC50: > 10000 nM
[2]
  IC50: > 10000 nM

## CCOC(=O)C(=CNc1ccc2ncnc(Nc3ccc(OCc4cccc(F)c4)c(Cl)c3)c2c1)C(=O)OCC
[1]
  IC50: 812 nM
[2]
  IC50: 5050 nM

## N#CC(C#N)=CNc1ccc2ncnc(Nc3ccc(Oc4ccc(Cl)c(Cl)c4)c(Cl)c3)c2c1
[1]
  IC50: > 10000 nM
[2]
  IC50: > 10000 nM

## N#CC(C#N)=CNc1ccc2ncnc(Nc3ccc(OCc4cccc(F)c4)c(Cl)c3)c2c1
[1]
  IC50: 445 nM
[2]
  IC50: 2720 nM

## N#CC(C#N)=CNc1ccc2ncnc(Nc3ccc(OCc4ccccn4)c(Cl)c3)c2c1
[1]
  IC50: 3050 nM
[2]
  IC50: 8000 nM

## NC(=O)Nc1ccc(C(=O)Nc2ccc3ncnc(Nc4ccc(F)c(Cl)c4)c3c2)cc1
[1]
  IC50: 9 nM
[2]
  IC50: 275 nM

## CCNC(=O)Nc1ccc(C(=O)Nc2ccc3ncnc(Nc4ccc(F)c(Cl)c4)c3c2)cc1
[1]
  IC50: 31 nM
[2]
  IC50: 855 nM

## CCOC(=O)C(=CNC(=O)Nc1ccc(C(=O)Nc2ccc3ncnc(Nc4ccc(F)c(Cl)c4)c3c2)cc1)C(=O)OCC
[1]
  IC50: 1460 nM
[2]
  IC50: > 10000 nM

## CS(=O)(=O)CCNCc1ccc(-c2ccc3ncnc(Nc4ccc(OCc5cccc(F)c5)c(Cl)c4)c3c2)o1 [LAPATINIB]
BT-474
  GI50: 930 nM
